# Source: patent publication US9696323B2, “Biomarkers for chagas disease related cardiomyopathy” (THE BOARD OF REGENTS OF THE UNIVERSITY OF TEXAS SYSTEM, priority 2013, dated 2017)
# How the values were obtained:
# T. cruzi [1] = assay: 2D-GE plasma proteome profile (differential protein expression) of T. cruzi-infected rats treated with PBN and/or BZ; type: in vivo, rat; conditions: plasma, RCP/RCB/RCPB groups (chronic infection)
# Excerpt: Certain embodiments include biomarkers identified in a previous study. Parasite persistence and oxidative damage in the heart are known to be of pathological significance during Chagas disease (Zacks et al., (2005) An Acad Bras Cienc, 77, 695-715; Gupta et al., (2009) Interdiscip Perspect Infect Dis, 2009, 190354). […] In the previous study the inventors identified 92 proteins that were differentially expressed or oxidized in chagasic plasma. Functional analysis allocated a majority of these proteins to inflammation/immunity and lipid metabolism categories, and to molecular pathways associated with cardiovascular dysfunction, e.g., myocardial infarction, hypertrophy, and fibrosis, and pulmonary embolism and hypertension. Some proteins in chagasic rats treated with PBN and/or BZ were allocated to curative pathways (immune regulation and cardiac remodeling). The 2D-GE results were validated by Western blotting. […] Increased plasma levels of GSN, MYL2, and VIM were directly correlated with the severity of cardiac disease in human chagasic patients. […] These findings have utility in diagnosing disease severity and designing suitable therapy for management of human chagasic patients.
# Ingenuity Pathway Analysis (IPA) is a highly curated and comprehensive software used for the integration of proteins into networks and pathways with biological meaning (Thomas and Bonchev, (2010). Hum Genomics, 4, 353-360). Network analysis of the plasma proteome profile of chagasic rats identified four major sub-networks linked to host response to T. cruzi infection and disease development (Table V). The maximal numbers of the differentially expressed plasma proteins (19 proteins) in chagasic rats were associated with antigen presentation and inflammatory response category (Table V) and indicators of persistent inflammation, known to be of pathological significance in Chagas disease (Dhiman et al., (2009) Clinical and Vaccine Immunology, 16, 660-666; Tanowitz et al., (2009) Prog Cardiovasc Dis, 51, 524-539; Junqueira et al., (2010) Expert Rev Mol Med, 12, e29). Following functional analysis of the inflammation-associated proteins, 12 proteins (APOA1, APOE, C3, CFB, CFH, FGB, GSN, KRT10, PLG, SCG2, SERPINA1, and SERPINC1) were identified as being involved in immune cell trafficking and cell movement of leukocytes, granulocytes, phagocytes, neutrophils, and dendritic and antigen presenting cells. Some of the differentially expressed proteins in inflammation category were associated with activation (APOE, C3, CFH, GC and PLG), chemotaxis (C3, SCG2, SERPINA1, SERPINC1), and infiltration of leukocytes (APOA1, APOE, C3, PLG, KRT10) and neutrophils (C3, CFB, CFH, PLG). Up regulation of APOE, APOA1, APOH, GC and PLG in chagasic plasma was indicative of activation, binding and accumulation of macrophages in the disease state. Of the 19 differentially expressed inflammation-associated proteins, 11 proteins (APOE, C3, CFB, CFH, GSN, KRT10, SCG2, SERPINA1, SERPINC1, GC, and PLG) were carbonylated in chagasic plasma. […] Other proteins (APOE, C3, KRT3, and SCG2) were exposed to oxidation due to T. cruzi-induced, acute oxidative stress, but were normalized in expression and oxidation during the chronic phase.
# Seventeen of the differentially expressed proteins in chagasic plasma, i.e., AFM, C4BPA, CACNA1D, DLGAP2, GC, KNG1, MUG1, MYLPF, MY05A, MY05B, PRPH, PZP, RAI14, and SCG2, were allotted to the lipid metabolism/molecular transport/small molecule biochemistry category (Table V) and functionally linked by IPA network analysis to lipid, fatty acid, and carbohydrate metabolism. A majority of the proteins in this category, i.e., ALB, APOA1, APOA4, APOE, APOH, C3, GC, GNAQ, MY05A, PLG, SCD2, SERPINA1, SERPINC1 and VIM, were linked to the synthesis, metabolism, transport, and modification of lipids and fatty acids, and to uptake and release or efflux of lipids, eicosanoids, and cholesterol. […]
# T. cruzi [2] = assay: Oxidative modification (carbonylation) of plasma proteins in chagasic rats treated with PBN and/or BZ; type: in vivo, rat; conditions: infected rats, plasma proteins
# Excerpt: Certain embodiments include biomarkers identified in a previous study. Parasite persistence and oxidative damage in the heart are known to be of pathological significance during Chagas disease (Zacks et al., (2005) An Acad Bras Cienc, 77, 695-715; Gupta et al., (2009) Interdiscip Perspect Infect Dis, 2009, 190354). […] In the previous study the inventors identified 92 proteins that were differentially expressed or oxidized in chagasic plasma. Functional analysis allocated a majority of these proteins to inflammation/immunity and lipid metabolism categories, and to molecular pathways associated with cardiovascular dysfunction, e.g., myocardial infarction, hypertrophy, and fibrosis, and pulmonary embolism and hypertension. Some proteins in chagasic rats treated with PBN and/or BZ were allocated to curative pathways (immune regulation and cardiac remodeling). The 2D-GE results were validated by Western blotting. […] Increased plasma levels of GSN, MYL2, and VIM were directly correlated with the severity of cardiac disease in human chagasic patients. […] These findings have utility in diagnosing disease severity and designing suitable therapy for management of human chagasic patients. […]
# T. cruzi [3] = conditions: infected rats; BZ parasite-induced, PBN oxidative stress-induced (Wen et al. 2006, 2010); cited from earlier work
smiles,measurement,setting,value
O=C(Cn1ccnc1[N+](=O)[O-])NCc1ccccc1 [BZ],"Spot# 34 Average Normalized Density × 100,000",T. cruzi [1],0.37
same,"Spot# 52, 54, 302 Average Normalized Density × 100,000",T. cruzi [1],0.60
same,"Spot# 94 Average Normalized Density × 100,000",T. cruzi [1],0.55
same,"Spot# 181 Average Normalized Density × 100,000",T. cruzi [1],7.53
same,"Spot# 586, 614 Average Normalized Density × 100,000",T. cruzi [1],132.20
same,"Spot# 672 Average Normalized Density × 100,000",T. cruzi [1],23.29
same,"Spot# 715 Average Normalized Density × 100,000",T. cruzi [1],30.96
same,"Spot# 745 Average Normalized Density × 100,000",T. cruzi [1],2.30
same,preventing protein carbonylation,T. cruzi [2],not effective in preventing protein carbonylation
same,controlling parasite- and oxidative stress-induced pathology,T. cruzi [3],beneficial effects
